# In patent publication US20240225983A1, “COMPOSITIONS AND METHODS FOR PREVENTING OR REDUCING AUTOXIDATION OF FRAGRANCE AND FOOD OILS” (Firmenich SA, priority 2021, published 2024):
# Structures can show the parent of a compound that is named as a salt.
# How the values were obtained:
# [1] = POV of corn oil treated with SOP (POV titration); conditions: 0.4 mL in 8 mL corn oil, versus untreated corn oil (FIG. 3, 4)
# Description: The POV of these solutions was measured periodically after standing on the laboratory benchtop at ambient light and temperature conditions.
# Into a 15 mL glass vial was placed 0.201 gm of AKG and 2.011 gm of DET. The mixture was stirred with a small magnetic stirrer at room temperature over a weekend (approximately 3 days). However, not all of the AKG dissolved, so the vial was placed in a heating block at 90° C. for 15 minutes, and a clear solution was obtained. Upon cooling and standing for several days, no solid precipitated out. This material (0.4 mL) was diluted into 8 mL of corn oil to start the experiment. A sample was also made from just 0.4 mL of DET in 8 mL of corn oil. POV titration measurements were taken periodically of each sample versus untreated corn oil.
# The performance of the SOPs were monitored by POV titration as described in Flavor & Fragrance Journal, M. Calandra and Y. Wang, 2020, 35:107-113 or as per the IFRA POV method (see www.ifraorg.org).
# [2] = Aldehyde levels in salad dressing (DNPH derivatization, HPLC); conditions: ~2.7% (w/w) in ranch dressing, room temperature, versus untreated (FIG. 9)
# Description: Aldehyde levels in corn oil or other foods (such as salad dressing) were measured using the DNPH derivatization followed by HPLC analysis method (J. Ag. Food Chem. Deng, F-Y. et al, (2014) 62, 52, 12545-12552; Food Res. Internat., Cao, J. et al, (2014) 64, 901-907). Alternatively, or in addition to aldehyde measurements by HPLC, organoleptic evaluation to assess the level of rancidity in a sample was done.
# Treatment of Salad Dressing with a 2-Oxoacid Salt • Sample: Ranch dressing (chili lime flavor) • 2-Oxoacid salt used: Phenyl pyruvic acid dimethyldecylammonium salt • Dosage: ˜2.7% (w/w) (0.4 g of the salt was added to 15 g of salad dressing). • Storage conditions: Room temperature, capped loosely, and mixed periodically.
Molecule,POV of corn oil [1],aldehyde concentration (hexanal or 2-nonenal) in salad dressing [2]
"CCOC(=O)C(O)C(O)C(=O)OCC (centres unmarked) [DET, diethyl tartrate]",some measurable activity toward reducing the POV,
Phenyl pyruvic acid dimethyldecylammonium salt,,aldehyde levels were lower
